Experimental data published in US20140343000A1 (priority 2011, published 2014).
Where a name gives a salt, the structure may show the parent alone.

System: recombinant NL4-3 virus (Renilla luciferase in nef, Gag P373S; NLRluc) in MT-2 cells
Assay: whole plant or invertebrate
Type: cell-based, HIV
Conditions: Renilla, NL43, luciferase activity in cells infected for 4-5 days with NLRluc recombinants, serial dilutions of inhibitor; class symbols (key in Table 1); read-out: EC50
How it was run: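 Virus from 293T transfection, titered in MT-2 by luciferase. MT-2 (RPMI, 10% HI-FBS) infected ± inhibitor serial dilutions, 4-5 d. Readout: Dual Luciferase premix (lysis:reagent:Stop & Glo 2:1:1), immediate luminescence.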

SMILES	EC50 [nM]
C=C(C)[C@@H]1CC[C@]2(NC(=O)N(C)CCn3ccnc3)CC[C@]3(C)[C@H](CC[C@@H]4[C@@]5(C)CC=C(c6ccc(C(=O)O)cc6)C(C)(C)[C@@H]5CC[C@]43C)[C@@H]12 [Example 25, 4-((1R,3aS,5aR,5bR,7aR,11aS,11bR,13aR,13bR)-3a-(3-(2-(1H-imidazol-1-yl)ethyl)-3-methylureido)-5a,5b,8,8,11a-pentamethyl-1-(prop-1-en-2-yl)-2,3,3a,4,5,5a,5b,6,7,7a,8,11,11a,11b,12,13,13a,13b-octadecahydro-1H-cyclopenta[a]chrysen-9-yl)benzoic acid]	< 100
C=C(C)[C@@H]1CC[C@]2(NC(=O)NC3(C(=O)O)CC3)CC[C@]3(C)[C@H](CC[C@@H]4[C@@]5(C)CC=C(c6ccc(C(=O)O)cc6)C(C)(C)[C@@H]5CC[C@]43C)[C@@H]12 [Example 4, 4-((1R,3aS,5aR,5bR,7aR,11aS,11bR,13aR,13bR)-3a-(3-(1-carboxycyclopropyl)ureido)-5a,5b,8,8,11a-pentamethyl-1-(prop-1-en-2-yl)-2,3,3a,4,5,5a,5b,6,7,7a,8,11,11a,11b,12,13,13a,13b-octadecahydro-1H-cyclopenta[a]chrysen-9-yl)benzoic acid]	> 100
C=C(C)[C@@H]1CC[C@]2(NC(=O)N(CCN3CCS(=O)(=O)CC3)CCN3CCS(=O)(=O)CC3)CC[C@]3(C)[C@H](CC[C@@H]4[C@@]5(C)CC=C(c6ccc(C(=O)O)cc6)C(C)(C)[C@@H]5CC[C@]43C)[C@@H]12 [Example 69, 4-((1R,3aS,5aR,5bR,7aR,11aS,11bR,13aR,13bR)-3a-((bis(2-(1,1-dioxido-4-thiomorpholinyl)ethyl)carbamoyl)amino)-1-isopropenyl-5a,5b,8,8,11a-pentamethyl-2,3,3a,4,5,5a,5b,6,7,7a,8,11,11a,11b,12,13,13a,13b-octadecahydro-1H-cyclopenta[a]chrysen-9-yl)benzoic acid]	< 100
C=C(C)[C@@H]1CC[C@]2(NCCN3CCN(C(=O)CC4CCCC4)CC3)CC[C@]3(C)[C@H](CC[C@@H]4[C@@]5(C)CC=C(c6ccc(C(=O)O)cc6)C(C)(C)[C@@H]5CC[C@]43C)[C@@H]12 [Example B56, 4-((1R,3aS,5aR,5bR,7aR,11aS,11bR,13aR,13bR)-3a-((2-(4-(2-cyclopentylacetyl)piperazin-1-yl)ethyl)amino)-5a,5b,8,8,11a-pentamethyl-1-(prop-1-en-2-yl)-2,3,3a,4,5,5a,5b,6,7,7a,8,11,11a,11b,12,13,13a,13b-octadecahydro-1H-cyclopenta[a]chrysen-9-yl)benzoic acid]	< 100
C=C(C)[C@@H]1CC[C@]2(NC(=O)Cn3ccnn3)CC[C@]3(C)[C@H](CC[C@@H]4[C@@]5(C)CC=C(c6ccc(C(=O)O)cc6)C(C)(C)[C@@H]5CC[C@]43C)[C@@H]12 [Example 88, 4-((1R,3aS,5aR,5bR,7aR,11aS,11bR,13aR,13bR)-3a-(2-(1H-1,2,3-triazol-1-yl)acetamido)-5a,5b,8,8,11a-pentamethyl-1-(prop-1-en-2-yl)-2,3,3a,4,5,5a,5b,6,7,7a,8,11,11a,11b,12,13,13a,13b-octadecahydro-1H-cyclopenta[a]chrysen-9-yl)benzoic acid]	< 100
C=C(C)[C@@H]1CC[C@]2(NC(=O)NCC3(NC(=O)OC(C)(C)C)CC3)CC[C@]3(C)[C@H](CC[C@@H]4[C@@]5(C)CC=C(c6ccc(C(=O)O)cc6)C(C)(C)[C@@H]5CC[C@]43C)[C@@H]12 [Example 2]	< 100
C=C(C)[C@@H]1CC[C@]2(NC(=O)CCc3nccn3C)CC[C@]3(C)[C@H](CC[C@@H]4[C@@]5(C)CC=C(c6ccc(C(=O)O)cc6)C(C)(C)[C@@H]5CC[C@]43C)[C@@H]12 [Example 75, 4-((1R,3aS,5aR,5bR,7aR,11aS,11bR,13aR,13bR)-5a,5b,8,8,11a-pentamethyl-3a-(3-(1-methyl-1H-imidazol-2-yl)propanamido)-1-(prop-1-en-2-yl)-2,3,3a,4,5,5a,5b,6,7,7a,8,11,11a,11b,12,13,13a,13b-octadecahydro-1H-cyclopenta[a]chrysen-9-yl)benzoic acid]	< 100
C=C(C)[C@@H]1CC[C@]2(NCCN3CCC(S(C)(=O)=O)CC3)CC[C@]3(C)[C@H](CC[C@@H]4[C@@]5(C)CC=C(c6ccc(C(=O)O)cc6)C(C)(C)[C@@H]5CC[C@]43C)[C@@H]12 [Example B14, 4-((1R,3aS,5aR,5bR,7aR,11aS,11bR,13aR,13bR)-5a,5b,8,8,11a-pentamethyl-3a-((2-(4-(methylsulfonyl)piperidin-1-yl)ethyl)amino)-1-(prop-1-en-2-yl)-2,3,3a,4,5,5a,5b,6,7,7a,8,11,11a,11b,12,13,13a,13b-octadecahydro-1H-cyclopenta[a]chrysen-9-yl)benzoic acid]	< 100
C=C(C)[C@@H]1CC[C@]2(NCCN3CCN(S(=O)(=O)CCC)CC3)CC[C@]3(C)[C@H](CC[C@@H]4[C@@]5(C)CC=C(c6ccc(C(=O)O)cc6)C(C)(C)[C@@H]5CC[C@]43C)[C@@H]12 [Example B23, 4-((1R,3aS,5aR,5bR,7aR,11aS,11bR,13aR,13bR)-5a,5b,8,8,11a-pentamethyl-1-(prop-1-en-2-yl)-3a-((2-(4-(propylsulfonyl)piperazin-1-yl)ethyl)amino)-2,3,3a,4,5,5a,5b,6,7,7a,8,11,11a,11b,12,13,13a,13b-octadecahydro-1H-cyclopenta[a]chrysen-9-yl)benzoic acid]	< 100
C=C(C)[C@@H]1CC[C@]2(NC(=O)NCC(C)(C)N3CCOCC3)CC[C@]3(C)[C@H](CC[C@@H]4[C@@]5(C)CC=C(c6ccc(C(=O)O)cc6)C(C)(C)[C@@H]5CC[C@]43C)[C@@H]12 [Example 6, 4-((1R,3aS,5aR,5bR,7aR,11aS,11bR,13aR,13bR)-5a,5b,8,8,11a-pentamethyl-3a-(3-(2-methyl-2-morpholinopropyl)ureido)-1-(prop-1-en-2-yl)-2,3,3a,4,5,5a,5b,6,7,7a,8,11,11a,11b,12,13,13a,13b-octadecahydro-1H-cyclopenta[a]chrysen-9-yl)benzoic acid]	< 100
C=C(C)[C@@H]1CC[C@]2(NCCCN3CCCC3=O)CC[C@]3(C)[C@H](CC[C@@H]4[C@@]5(C)CC=C(c6ccc(C(=O)O)c(F)c6)C(C)(C)[C@@H]5CC[C@]43C)[C@@H]12 [Example A5, 2-fluoro-4-((1R,3aS,5aR,5bR,7aR,11aS,11bR,13aR,13bR)-5a,5b,8,8,11a-pentamethyl-3a-(3-(2-oxopyrrolidin-1-yl)propylamino)-1-(prop-1-en-2-yl)-2,3,3a,4,5,5a,5b,6,7,7a,8,11,11a,11b,12,13,13a,13b-octadecahydro-1H-cyclopenta[a]chrysen-9-yl)benzoic acid]	< 100
C=C(C)[C@@H]1CC[C@]2(NCCN3CCN(S(=O)(=O)CCCCl)CC3)CC[C@]3(C)[C@H](CC[C@@H]4[C@@]5(C)CC=C(c6ccc(C(=O)O)cc6)C(C)(C)[C@@H]5CC[C@]43C)[C@@H]12 [Example B38, 4-((1R,3aS,5aR,5bR,7aR,11aS,11bR,13aR,13bR)-3a-((2-(4-((3-chloropropyl)sulfonyl)piperazin-1-yl)ethyl)amino)-5a,5b,8,8,11a-pentamethyl-1-(prop-1-en-2-yl)-2,3,3a,4,5,5a,5b,6,7,7a,8,11,11a,11b,12,13,13a,13b-octadecahydro-1H-cyclopenta[a]chrysen-9-yl)benzoic acid]	< 100
C=C(C)[C@@H]1CC[C@]2(NCCN3CCOCC3)CC[C@]3(C)[C@H](CC[C@@H]4[C@@]5(C)CC=C(c6ccc(C(=O)O)cc6)C(C)(C)[C@@H]5CC[C@]43C)[C@@H]12 [Example 159, 4-((1R,3aS,5aR,5bR,7aR,11aS,11bR,13aR,13bR)-5a,5b,8,8,11a-pentamethyl-3a-(2-morpholinoethylamino)-1-(prop-1-en-2-yl)-2,3,3a,4,5,5a,5b,6,7,7a,8,11,11a,11b,12,13,13a,13b-octadecahydro-1H-cyclopenta[a]chrysen-9-yl)benzoic acid]	< 100
C=C(C)[C@@H]1CC[C@]2(NCCC(F)(F)F)CC[C@]3(C)[C@H](CC[C@@H]4[C@@]5(C)CC=C(c6ccc(C(=O)O)cc6)C(C)(C)[C@@H]5CC[C@]43C)[C@@H]12 [Example 182, 4-((1R,3aS,5aR,5bR,7aR,11aS,11bR,13aR,13bR)-5a,5b,8,8,11a-pentamethyl-1-(prop-1-en-2-yl)-3a-((3,3,3-trifluoropropyl)amino)-2,3,3a,4,5,5a,5b,6,7,7a,8,11,11a,11b,12,13,13a,13b-octadecahydro-1H-cyclopenta[a]chrysen-9-yl)benzoic acid]	> 100

Same assay, conditions: Renilla, NL43, luciferase activity in cells infected for 4-5 days with NLRluc recombinants, serial dilutions of inhibitor; numeric values; read-out: EC50

SMILES	EC50 [nM]
C=C(C)[C@@H]1CC[C@]2(NCc3ccc(F)cn3)CC[C@]3(C)[C@H](CC[C@@H]4[C@@]5(C)CC=C(c6ccc(C(=O)O)cc6)C(C)(C)[C@@H]5CC[C@]43C)[C@@H]12 [Example 133, 4-((1R,3aS,5aR,5bR,7aR,11aS,11bR,13aR,13bR)-3a-((5-fluoropyridin-2-yl)methylamino)-5a,5b,8,8,11a-pentamethyl-1-(prop-1-en-2-yl)-2,3,3a,4,5,5a,5b,6,7,7a,8,11,11a,11b,12,13,13a,13b-octadecahydro-1H-cyclopenta[a]chrysen-9-yl)benzoic acid]	30

Same assay, conditions: luciferase activity in cells infected for 4-5 days with NLRluc recombinants, serial dilutions of inhibitor; class symbols (key in Table 1); read-out: EC50

SMILES	EC50 [nM]
C=C(C)[C@@H]1CC[C@]2(NC)CC[C@]3(C)[C@H](CC[C@@H]4[C@@]5(C)CC=C(c6ccc(C(=O)O)cc6)C(C)(C)[C@@H]5CC[C@]43C)[C@@H]12 [Example 176, 4-((1R,3aS,5aR,5bR,7aR,11aS,11bR,13aR,13bR)-5a,5b,8,8,11a-pentamethyl-3a-(methylamino)-1-(prop-1-en-2-yl)-2,3,3a,4,5,5a,5b,6,7,7a,8,11,11a,11b,12,13,13a,13b-octadecahydro-1H-cyclopenta[a]chrysen-9-yl)benzoic acid, HCl]	< 100
